Patent US8710021B2, “Inhibition of HRP-3 using modified oligonucleotides” (Bionucleon S.r.l., priority 2008, dated 2014)

Tests used:
[1] = target: T1, HRP-3 (Homo sapiens, UniProt Q9Y3E1); assay: 3T3 migration in vitro assay: prevention of HRP-3 function by DNA duplexes; type: cell-based, mouse
T1 construct: The HRP-3 coding region was cloned into the pET30 vector using EcoRI and NdeI as restriction sites; made in house; host or cells: E. coli BL21
Procedure: All the four DNA duplexes were tested in our 3T3 migration in vitro assay to see if they were able to prevent HRP-3 function by binding its PWWP domain (FIG. 13). […] The third column on the left is the negative control.

[2] = target: T1, HRP-3; assay: HUVEC migration assay with Duplex 1 and HRP-3; type: cell-based; conditions: 50 nM; data not shown

T1 sequence (Q9Y3E1 whole entry): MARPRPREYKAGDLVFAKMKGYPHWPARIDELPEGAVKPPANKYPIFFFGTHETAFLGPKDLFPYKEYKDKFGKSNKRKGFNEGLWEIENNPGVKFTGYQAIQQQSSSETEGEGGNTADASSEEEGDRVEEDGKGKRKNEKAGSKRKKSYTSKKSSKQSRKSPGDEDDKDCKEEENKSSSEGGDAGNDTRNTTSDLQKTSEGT

Duplex 1: short (15 bp) duplex DNA, the duplex of Lukasik et al., designed to target HRP3 (FIG. 12) (chain 1 TACAACACCCACAAA; chain 2 TTTGTGGGTGTTGTA; chain 1: DNA, backbone and methylation of C not given here; chain 2: DNA, backbone not given here) [reference compound]
activity in abolishing the anti-migratory effect of HRP-3 on 3T3 cells [1]: able to abolish the protein effect of HRP-3
migration of 3T3 cells in presence of HRP-3 and duplex ([1]; 250 nM duplex with HRP-3): comparable with the control with FBS
influence of the duplex alone on 3T3 migration compared to control with FBS ([1]; 1000 nM, without HRP-3): does not have any influence on the migration
reversal of anti-migratory activity of HRP-3 on HUVEC [2]: restore totally
